Reference: US4927826A, “Cycloproylpropenamides useful as platelet activing factor (PAF) antagonists” (Hoffman-La Roche Inc., priority 1988, dated 1990)

Assays:
[1] = tested on: dog platelets; assay: Binding assay: inhibition of 3H-PAF binding to dog platelets; details: 10 minutes at room temperature
Procedure: The binding assay was done in 400 μl polyethylene microcentrifuge tubes (Beckman) containing 50 μl of an oil mixture of 2 parts Siliconol AR200 (Serva): 1 part Silicone Fluid (Arthur H. Thomas). Buffer, standards, or analogs (150 μl total volume) were added to the tubes. Radiolabelled ^3 H-PAF (50 μl) was then added to the tubes. The reaction was started by the addition of 50 μl of dog platelets (2×10^7 platelets). The tubes were capped, inverted several times to mix, and incubated for 10 minutes at room temperature. The platelets were separated from the incubation mixture by centrifuging 1 minute in a Beckman Microfuge B centrifuge. The tip of the microfuge tube was cut off, and the platelets were washed out of the tip with 200 μl of 50% methanol (Burdick and Jackson). Aquasol (NEN, 10 ml) was added and the radioactivity in the samples was determined using an LS 8100 Beckman liquid scintillation counter linked to a Techtran tape recorder. Data was processed through an in-house computer system. Alternatively, radioactivity was determined using a Searle Mark III liquid scintillation counter linked to a Iso-Data microprocessor.
(b) Preparation of Platelets
Blood was collected from anesthesized or unanesthesized dogs into 50 ml plastic centrifuge tubes containing 3.8% sodium citrate as the anticoagulant (1 volume of citrate/9 volumes of blood). The red cells were removed by centrifugation for 15 minutes at 600 rpm (100-125 g) at room temperature. An aliquot of the supernatant platelet rich plasma (PRP) was saved for cell counting and the remainder was acidified by pH 6.5 with 0.15M citric acid. The platelet pellet was obtained after a 10 minute centrifugation at 2000 rpm (1000 g) at room temperature. Washed platelets were prepared by resuspending the platelet pellet once with PBS containing 1 mM EDTA, centrifuging as noted, and then resuspending the platelets in 0.1% BSA-PBS. An aliquot of the washed platelets was counted. Platelets used for binding assays were diluted to 2×10^7 platelets/assay tube (4×10^8 platelets/ml). Platelet counting was done using a Royco Cell-Crit 921.

[2] = tested on: PAF-induced Bronchoconstriction; assay: PAF Induced Bronchoconstriction Assay; type: in vivo; details: guinea pig, ± standard error of the mean; for Percent Inhib. of PAF-induced Bronchoconstriction, 50 mg/Kg p.o.: 2-hour pretreatment, PAF i.v.; for Percent Inhib. of PAF-induced Bronchoconstriction, 1 mg/Kg i.v.: 1 minute pretreatment, PAF 1.0 μg/kg i.v.
Procedure: PAF Induced Bronchoconstriction Assay
Male animals (Hartlet Strain, 400-500 g) were anesthetized with urethane (2 g/kg, i.p.). Each animals' trachea was cannulated and the guinea pigs were respirated using a Harvard small animal rodent respirator (3.0 cc stroke volume, 40 breaths per min.). Tracheal pressure was recorded from a cannula inserted in the trachea and connected to a Statham Pressure Transducer.
The jugular vein was cannulated for administering compounds. Spontaneous breathing was arrested with succinylcholine (1.2 mg/kg, i.v.) administered 2 minutes prior to intravenous injection of platelet activating factor (PAF).
For, the intravenous testing, the guinea pig is given a 5-minute pretreatment with propranolol at a dose of 0.1 mg/kg intravenously. The test compound is administered with a 1 minute pretreatment prior to intravenous challenge with PAF. The animal is then challenged with a 1.0 μg/kg intravenous dose of PAF and the change is tracheal pressure is measured.
For the oral testing, the procedure includes a 2-hour pretreatment period with the test compound administered through an oral gavage tube. Propranolol or succinylcholine and PAF are administered intravenously, and the change in tracheal pressure measured.
The change is tracheal pressure is determined by subtracting the steady state baseline achieved after administration of succinylcholine from the peak bronchoconstriction seen after challenge with PAF. The mean is calculated for each test compound and compared to the mean of the control animals to give the percent inhibition of bronchoconstriction. The standard error is calculated as the standard error of the mean.

| IC50 [1] [nM] | Compound | Percent Inhib. of PAF-induced Bronchoconstriction, 50 mg/Kg p.o. [2] [%] | Percent Inhib. of PAF-induced Bronchoconstriction, 1 mg/Kg i.v. [2] [%] |
| --- | --- | --- | --- |
| 1000 | O=C(/C=C\C1CC1(c1ccc(F)cc1)c1ccc(F)cc1)NCCCCc1cccnc1 (racemic) [[R,S-(Z)]-3-[2,2-bis(4-Fluorophenyl)cyclopropyl]-N-[4-[3-pyridinyl)butyl]-2-propenamide] | 78 ± 11 |  |
| 500 | C[C@]1(/C=C/C(=O)NCCCCc2cccnc2)CC1(c1ccc(F)cc1)c1ccc(F)cc1 [[R-(E)]-3-[2,2-bis(4-fluorophenyl)-1-methylcyclopropyl]-N-[4-(3-pyridinyl)butyl]-2-propenamide] |  |  |
| 25 | O=C(/C=C/[C@@H]1CC1(c1ccc(F)cc1)c1ccc(F)cc1)NCCCCc1cccnc1 [[S-(E)]-3-[2,2-bis(4-Fluorophenyl)cyclopropyl]-N-[4-(3-pyridinyl)butyl]-2-propenamide] | 62 ± 13 | 33 ± 7 |
| 300 | CC1(/C=C/C(=O)NCCCCc2cccnc2)CC1(c1ccc(F)cc1)c1ccc(F)cc1 (racemic) [[R,S-(E)]-3-[2,2-bis(4-Fluorophenyl)-1-methylcyclopropyl]-N-[4-(3-pyridinyl)butyl]-2-propenamide] |  |  |
| 200 | C[C@@]1(/C=C/C(=O)NCCCCc2cccnc2)CC1(c1ccc(F)cc1)c1ccc(F)cc1 [[S-(E)]-3-[2,2-bis(4-Fluorophenyl)-1-methylcyclopropyl]-N-[4-(3-pyridinyl)butyl]-2-propenamide] |  |  |
| 35 | COc1cccc([C@@]2(c3ccccc3)C[C@@H]2/C=C/C(=O)NCCCCc2cccnc2)c1 (relative stereo) [[1(R,S),2(S,R)-(E)]-3-[[2-(3-Methoxyphenyl)-2-phenyl]cyclopropyl]-N-[4-(3-pyridinyl)butyl]-2-propenamide] |  |  |
| 200 | O=C(/C=C/[C@H]1CC1(c1ccc(F)cc1)c1ccc(F)cc1)NCCCCc1cccnc1 [[R-(E)]-3-[2,2-bis(4-Fluorophenyl)cyclopropyl]-N-[4-(3-pyridinyl)butyl]-2-propenamide] | 83 ± 31 | 13 ± 11 |
| 100 | O=C(/C=C/C1CC1(c1ccc(F)cc1)c1ccc(F)cc1)NCCCCc1cccnc1 (racemic) [[R,S-(E)]-3-[2,2-bis(4-Fluorophenyl)cyclopropyl]-N-[4-(3-pyridinyl)butyl]-2-propenamide] | 82 ± 5 | 20 ± 8 |
| 200 | O=C(/C=C/[C@H]1CC1(c1cccc(F)c1)c1cccc(F)c1)NCCCCc1cccnc1 [[R-(E)]-3-[2,2-bis(3-Fluorophenyl)cyclopropyl]-N-[4-(3-pyridinyl)butyl]-2-propenamide] | 10 ± 13 | 29 ± 3 |
| 450 | C[C@H](CCCc1cccnc1)NC(=O)/C=C/[C@@H]1CC1(c1ccc(F)cc1)c1ccc(F)cc1 (relative stereo) [[S,R*-(E)]-3-[2,2-bis(4-Fluorophenyl)cyclopropyl]-N-[1-methyl-4-(3-pyridinyl)butyl]-2-propenamide] |  |  |

Second part, the compound before the results:

| Compound | IC50 [1] [nM] | Percent Inhib. of PAF-induced Bronchoconstriction, 50 mg/Kg p.o. [2] [%] | Percent Inhib. of PAF-induced Bronchoconstriction, 1 mg/Kg i.v. [2] [%] |
| --- | --- | --- | --- |
| S=C(/C=C/C1CC1(c1ccccc1)c1ccccc1)NCCCCc1cccnc1 (racemic) [(R,S)-(E)-3-(Diphenylcyclopropyl)-N-[4-(3-pyridinyl)butyl]-2-propenethioamide] | 55 |  |  |
| O=C(CC[C@@H]1CC1(c1ccccc1)c1ccccc1)NCCCCc1cccnc1 [(R)-2,2-Diphenyl-N-[4-(3-pyridinyl)butyl]cyclopropanepropanamide] | 600 |  |  |
| O=C(/C=C\[C@@H]1CC1(c1ccccc1)c1ccccc1)NCCCCc1cccnc1 [[S-(Z)]-3-(2,2-Diphenylcyclopropyl)-N-[4-(3-pyridinyl)butyl]-2-propenamide] | 1000 |  |  |
| COc1cccc([C@]2(c3ccccc3)C[C@@H]2/C=C/C(=O)NCCCCc2cccnc2)c1 (relative stereo) [[1(R,S),2(R,S)-(E)]-3-[[2-(3-Methoxyphenyl)-2-phenyl]cyclopropyl]-N-[4-(3-pyridinyl)butyl]-2-propenamide] | 8 |  |  |
| O=C(/C=C\[C@H]1CC1(c1ccccc1)c1ccccc1)NCCCCc1cccnc1 [[R-(Z)]-3-(2,2-Diphenylcyclopropyl)-N-[4-(3-pyridinyl)butyl]-2-propenamide] | 100 |  |  |
| COc1cccc(C2(c3cccc(OC)c3)C[C@H]2/C=C/C(=O)NCCCCc2cccnc2)c1 [[S-(E)]-3-[2,2-bis(3-Methoxyphenyl)cyclopropyl]-N-[4-(3-pyridinyl)butyl]-2-propenamide] | 36 |  | 25 ± 8 |
| COc1cccc([C@]2(c3ccccc3)C[C@@H]2/C=C\C(=O)NCCCCc2cccnc2)c1 (relative stereo) [[1(R,S),2(R,S)-(Z)]-3-[[2-(3-Methoxyphenyl)-2-phenyl]cyclopropyl]-N-[4-(3-pyridinyl)butyl]-2-propenamide] | 300 | 9 ± 14 |  |
| O=C(/C=C\C1CC1(c1ccccc1)c1ccccc1)NCCCCc1cccnc1 (racemic) [[R,S-(Z)]-3-(2,2-Diphenylcyclopropyl)-N-[4-(3-pyridinyl)butyl]-2-propenamide] | 650 |  |  |
| COc1cccc(C2(c3cccc(OC)c3)C[C@@H]2/C=C/C(=O)NCCCCc2cccnc2)c1 [[R-(E)]-3-[2,2-bis(3-Methoxyphenyl)cyclopropyl]-N-[4-(3-pyridinyl)butyl]-2-propenamide] | 300 | 8 ± 2 | 8 ± 5 |
| O=C(/C=C/C1CC1(c1cccc(C(F)(F)F)c1)c1cccc(C(F)(F)F)c1)NCCCCc1cccnc1 (racemic) [[R,S-(E)]-3-[2,2-bis[3-(trifluoromethyl)phenyl]cyclopropyl]-N-[4-(3-pyridinyl)butyl]-2-propenamide] | 350 |  |  |
| O=C(/C=C/[C@H]1CC1(c1ccccc1)c1ccccc1)NCCCCc1cccnc1 [[R-(E)]-3-(2,2-Diphenylcyclopropyl)-N-[4-(3-pyridinyl)butyl]-2-propenamide] | 250 | 57 ± 19 | 71 ± 12 |
| O=C(CCC1CC1(c1ccccc1)c1ccccc1)NCCCCc1cccnc1 (racemic) [(R,S)-2,2-Diphenyl-N-[4-(3-pyridinyl)butyl]cyclopropanepropanamide] | 300 |  |  |
| COc1cccc(C2(c3cccc(OC)c3)CC2/C=C/C(=O)NCCCCc2cccnc2)c1 (racemic) [[R,S-(E)]-3-[2,2-bis(3-Methoxyphenyl)cyclopropyl]-N-[4-(3-pyridinyl)butyl]-2-propenamide] | 70 | 14 ± 1 |  |
| O=C(CC[C@H]1CC1(c1ccccc1)c1ccccc1)NCCCCc1cccnc1 [(S)-2,2-Diphenyl-N-[4-(3-pyridinyl)butyl]cyclopropanepropanamide] | 200 |  |  |
| O=C(/C=C/C1CC1(c1ccccc1)c1ccccc1)NCCCCc1cccnc1 (racemic) [[R,S-(E)]-3-(2,2-Diphenylcyclopropyl)-N-[4-(3-pyridinyl)butyl]-2-propenamide] | 150 |  | 48 ± 16 |
| C[C@H](CCCc1cccnc1)NC(=O)/C=C/[C@@H]1CC1(c1cccc(F)c1)c1cccc(F)c1 (relative stereo) [[S,R*-(E)]-3-[2,2-bis(3-Fluorophenyl)cyclopropyl]-N-[1-methyl-4-(3-pyridinyl)butyl]-2-propenamide] | 130 |  |  |
| COc1cccc(C2(c3cccc(OC)c3)CC2/C=C/C(=O)NC(C)CCCc2cccnc2)c1 (stereo in doubt) [(S,R*)-(E)-3-[2,2-bis(3-Methoxyphenyl)cyclopropyl]-N-[1-methyl-4-(3-pyridinyl)butyl]-2-propenamide] | 450 |  |  |
